Measurements from patent US9925198B2, “Pharmaceutical composition for preventing or treating hearing loss, comprising carbenoxolone or its pharmaceutically acceptable salts as effective compound” (AJOU UNIVERSITY INDUSTRY-ACADEMIC COOPERATION FOUNDATION, priority 2015, dated 2018).
“And” between values parts separate entries of the source, which are not always exact repeats. Equal entries are not always repeated. “Also recorded” adds a separate entry of the source. Where two headings read alike, the source gives them in different places.

Tests used:
[1] = tested on: auditory outer hair cells; experiment: Scanning electron microscope (SEM) analysis of cochlea, auditory outer hair cell damage; assay type: in vivo, SD-rat; conditions: basal turn (32 kHz) and middle turn (16 kHz)
Excerpt: Also, degrees of loss and damage on auditory cells at the basal turn (32 kHz) and the middle turn (16 kHz) in cochlea were confirmed by using a scanning electron microscope (SEM) to analyze the shape of cochlea.

[2] = tested on: ototoxic hearing loss induced by cisplatin; experiment: Auditory brainstem response (ABR) test, hearing threshold in rats with cisplatin-induced ototoxic hearing loss; assay type: in vivo, SD-rat; conditions: for hearing threshold (ABR) at 16 kHz / hearing threshold (ABR) at 32 kHz: measured 5 days after; for hearing threshold (ABR) at 16 kHz: tone burst 16 kHz; for hearing threshold (ABR) at 32 kHz: tone burst 32 kHz
Procedure: Auditory acuity was evaluated by performing an auditory brainstem response (ABR) test on the SD-rat before and after the drug administration. The ABR test was determines the minimum stimuli intensity (dB) that evokes the waveform of wave V by providing tone burst of 16 kHz and 32 kHz using a TDT ABR device as a hearing threshold, and the auditory acuities were measured 1 day before the drug administration and 5 days after the drug administration.

[3] = tested on: auditory sensory hair cell stereocilia; experiment: Phalloidin staining of auditory sensory hair cell stereocilia in cochlea; assay type: in vivo, SD-rat; conditions: basal turn (32 kHz) and middle turn (16 kHz)
Procedure: Phalloidin staining was performed on auditory sensory hair cell stereocilia markers of the SD-rats administered with drugs by using the method described above to confirm degrees of loss or damage on auditory cells at sites of the basal turn (32 kHz) and the middle turn (16 kHz).

cisplatin-takers = conditions: cited from earlier work
[4] = cisplatin 16 mg/kg + carbenoxolone sodium 50 mg/kg, vs cisplatin alone
[5] = cisplatin 16 mg/kg i.p. once + carbenoxolone sodium 50 mg/kg daily 2 days before and after cisplatin
[6] = cisplatin 16 mg/kg + 18α-GA 100 mg/kg
[7] = cisplatin 16 mg/kg i.p. once + 18α-GA 100 mg/kg daily 2 days before and after cisplatin
[8] = cisplatin alone 16 mg/kg, compared to control group

CC1(C)[C@@H](OC(=O)CCC(=O)O)CC[C@]2(C)[C@H]3C(=O)C=C4[C@@H]5C[C@@](C)(C(=O)O)CC[C@]5(C)CC[C@@]4(C)[C@]3(C)CC[C@@H]12 [carbenoxolone sodium]
preservation of outer hair cells (SEM, FIG. 4) [1, 4]: significantly preserved
hearing threshold (ABR) at 16 kHz [2, 5]: 26.3±7.5 dB
hearing threshold (ABR) at 32 kHz [2, 5]: 28.8±4.8 dB
preservation of outer hair cells (phalloidin staining, FIG. 3) [3, 4]: significantly preserved

CC1(C)[C@@H](O)CC[C@]2(C)[C@H]3C(=O)C=C4[C@H]5C[C@@](C)(C(=O)O)CC[C@]5(C)CC[C@@]4(C)[C@]3(C)CC[C@@H]12 [18α-GA, 18α-glycyrrhetinic acid]
damage prevention effect (SEM, FIG. 4) [1, 6]: not confirmed
hearing thresholds compared with the cisplatin-treated group ([2]; cisplatin 16 mg/kg + 18α-GA 100 mg/kg, 16 kHz and 32 kHz): no significant difference; also recorded: did not show significant difference
hearing threshold (ABR) at 16 kHz [2, 7]: 49.3±4.8 dB and 46.2±4.1 dB
hearing threshold (ABR) at 32 kHz [2, 7]: 46.2±4.1 dB
damage prevention effect (phalloidin staining, FIG. 3) [3, 6]: not exhibited

N.N.[Cl][Pt][Cl] [cisplatin]
auditory outer hair cell damage (SEM, FIG. 4) [1, 8]: damages on auditory outer hair cells were observed in numbers; also recorded: a number of auditory outer hair cell damages were observed
auditory impairment occurrence frequency (cisplatin-takers; children): about 50%
auditory impairment occurrence frequency (cisplatin-takers; cisplatin-takers): about 30%
stereocilia damage (phalloidin staining, FIG. 3) [3, 8]: a number of stereocilia damages were observed
